{"source": "paper PMC12406204", "about": "(Journal of Medicinal Chemistry, 2025)", "key": {"CB2R [1]": {"biological_target": "T1, CB2R (Homo sapiens, UniProt P34972)", "T1 sequence (P34972 whole entry)": "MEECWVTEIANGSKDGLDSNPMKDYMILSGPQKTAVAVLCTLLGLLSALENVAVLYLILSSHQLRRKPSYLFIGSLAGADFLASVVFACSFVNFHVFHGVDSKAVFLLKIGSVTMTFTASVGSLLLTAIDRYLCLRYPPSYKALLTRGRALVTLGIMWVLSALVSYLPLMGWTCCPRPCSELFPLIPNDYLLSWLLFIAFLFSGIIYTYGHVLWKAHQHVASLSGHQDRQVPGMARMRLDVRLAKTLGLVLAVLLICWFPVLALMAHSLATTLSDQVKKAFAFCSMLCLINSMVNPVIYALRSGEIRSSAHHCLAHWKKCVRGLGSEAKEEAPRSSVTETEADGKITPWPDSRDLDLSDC", "assay": "CB2R cAMP determination after forskolin stimulation in transfected HEK-293T cells", "format": "cell-based", "set-up": "expressed in transfected cells; host or cells: HEK-293T, transient transfection (PEI)", "description": "(§1) Initially we tested their ability to modify CB2R-mediated cAMP accumulation, providing insights into their functional behavior as either agonists or antagonists (Table ). Moreover, the signaling profiles of selected ligands were investigated through their impact on β-arrestin recruitment and Mitogen-Activated Protein Kinase (MAPK) phosphorylation pathway, enabling a more comprehensive evaluation of their intracellular signaling profiles (Table ).\nHEK-293T cells were grown in Dulbecco’s Modified Eagle’s Medium (DMEM) medium (Gibco, Paisley, Scotland, United Kingdom) supplemented with 2 mM L-glutamine, 100 U/mL penicillin/streptomycin, MEM Non-Essential Amino Acids Solution (1/100) and 5% (v/v) heat inactivated Fetal Bovine Serum (FBS) (Invitrogen, Paisley, Scotland, United Kingdom). Cells were maintained in a humid atmosphere of 5% CO2 at 37 °C. Cells were transiently transfected with the PEI (Polyethylenimine, Sigma, St. Louis, MO, United States) method as previously described and used for functional assays 48 h later.\nSignaling experiments have been performed as previously described. Two hours before initiating the experiment, HEK-293T cell-culture medium was replaced by serum-starved DMEM medium. Then, cells were detached, resuspended in growing medium containing […] zardaverine (Tocris, Bristol, U.K.) and placed in 384-well microplates (2500 cells/well). Cells were pretreated (15 min) with cannabinoid compounds (1 nM to 100 μM) -or vehicle- before adding […] forskolin (Tocris, Bristol, U.K.) to induce cAMP accumulation. Readings were performed after 15 min incubation at 25 °C. Homogeneous Time Resolved Fluorescence (HTRF) energy transfer measures were performed using the Lance Ultra cAMP kit (PerkinElmer, Waltham, MA, United States). Fluorescence at 665 nm was analyzed in a PHERA star Flagship microplate reader equipped with an HTRF optical module (BMG Lab Technologies, Offenburg, Germany)."}, "CB2R [2]": {"biological_target": "T1, CB2R", "assay": "CB2R β-arrestin recruitment", "format": "cell-based", "set-up": "expressed in transfected cells; host or cells: HEK-293T, transient transfection (PEI)", "from_the_text": "as §1\n(§2) JWH-133, a well-known nonbiased (balanced) agonist, was employed as the reference for comparing the signaling profiles of the tested compounds. An operational model analysis was applied to quantify the functional bias of each CB2R-selective agonist. This involved calculating the bias factor by comparing the signaling pathways: β-arrestin versus cAMP, MAPK versus cAMP, and β-arrestin versus MAPK."}, "CB2R [3]": {"biological_target": "T1, CB2R", "assay": "CB2R MAPK phosphorylation", "format": "cell-based", "set-up": "expressed in transfected cells; host or cells: HEK-293T, transient transfection (PEI)", "from_the_text": "as §1, §2"}, "CB1R": {"biological_target": "CB1R (Homo sapiens, UniProt P21554)", "sequence (P21554 whole entry)": "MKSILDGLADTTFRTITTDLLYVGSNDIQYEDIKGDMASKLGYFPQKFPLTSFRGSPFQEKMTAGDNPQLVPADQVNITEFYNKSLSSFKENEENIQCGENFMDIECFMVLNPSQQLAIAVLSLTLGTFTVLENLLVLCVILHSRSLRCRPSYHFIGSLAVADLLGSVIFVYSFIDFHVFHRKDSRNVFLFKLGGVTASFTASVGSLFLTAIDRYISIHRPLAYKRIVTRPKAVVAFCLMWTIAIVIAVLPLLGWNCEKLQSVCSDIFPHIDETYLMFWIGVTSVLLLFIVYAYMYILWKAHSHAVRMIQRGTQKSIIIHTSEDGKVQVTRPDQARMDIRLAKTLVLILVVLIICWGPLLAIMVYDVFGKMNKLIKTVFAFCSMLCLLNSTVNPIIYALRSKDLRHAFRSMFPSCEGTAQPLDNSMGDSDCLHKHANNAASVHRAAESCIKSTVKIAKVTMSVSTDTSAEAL", "set-up": "host or cells: CHO-CB1 C3 cell line"}, "CB2R [4]": {"biological_target": "T1, CB2R", "set-up": "expressed in transfected cells; host or cells: HEK-293T (HEK-CB2 cell line)"}, "[5]": {"conditions": "read-out: CB1R Ki; abused SCRAs and N-methyl analogues, earlier study of the authors; cited from earlier work"}, "[6]": {"conditions": "read-out: CB2R Ki; abused SCRAs and N-methyl analogues, earlier study of the authors; cited from earlier work"}, "[7]": {"conditions": "at 1 μM, earlier study of the authors; cited from earlier work"}}, "note": "Like-named read-outs stand apart in the source and are kept apart here."}
{"smiles": "CCCC(C)(C)c1ccc2c(c1)OC(C)(C)[C@@H]1CC=C(C)C[C@@H]21", "note": "[JWH-133, reference compound]", "values": [{"measurement": "CB2R Emax AMPc", "setting": "CB2R [1]; normalized to maximal efficacious concentration of CP 55,940", "value": 98, "unit": "%"}, {"measurement": "EC50", "setting": "CB2R [1]; transfected HEK-293T cells, forskolin-stimulated cAMP, read-out: CB2R EC50 AMPc", "value": "6.73 ± 0.5", "unit": "nM"}, {"measurement": "EC50", "setting": "CB2R [2]", "value": "1.34 ± 0.05", "unit": "nM"}, {"measurement": "CB2R Emax β-arrestin", "setting": "CB2R [2]; normalized to CP 55,940", "value": 93, "unit": "%"}, {"measurement": "EC50", "setting": "CB2R [3]", "value": "2.7 ± 0.19", "unit": "nM"}, {"measurement": "CB2R Emax MAPK", "setting": "CB2R [3]; normalized to CP 55,940", "value": 98, "unit": "%"}]}
{"smiles": "COC(=O)[C@@H](NC(=O)c1nn(CCCCCF)c2ccccc12)C(C)(C)C", "note": "[compound 1, 5F-MDMB-PINACA]", "values": [{"measurement": "Ki", "setting": "CB1R; [5]", "value": 0.8, "unit": "nM"}, {"measurement": "Ki", "setting": "CB2R [4]; [6]", "value": 0.1, "unit": "nM"}]}
{"smiles": "COC(=O)[C@@H](NC(=O)c1nn(Cc2ccc(F)cc2)c2ccccc12)C(C)(C)C", "note": "[compound 2, MDMB-FUBINACA]", "values": [{"measurement": "Ki", "setting": "CB1R; [5]", "value": 0.83, "unit": "nM"}, {"measurement": "Ki", "setting": "CB2R [4]; [6]", "value": 0.3, "unit": "nM"}]}
{"smiles": "COC(=O)[C@@H](NC(=O)c1cn(CC2CCCCC2)c2ccccc12)C(C)C", "note": "[compound 3, AMB-CHMICA]", "values": [{"measurement": "Ki", "setting": "CB1R; [5]", "value": 10.5, "unit": "nM"}, {"measurement": "Ki", "setting": "CB2R [4]; [6]", "value": 3.44, "unit": "nM"}]}
{"smiles": "COC(=O)[C@@H](NC(=O)c1cn(Cc2ccc(F)cc2)c2ccccc12)C(C)C", "note": "[compound 4, AMB-FUBICA]", "values": [{"measurement": "Ki", "setting": "CB1R; abused SCRAs and N-methyl analogues, earlier study of the authors; read-out: CB1R Ki; cited from earlier work", "value": 47.8, "unit": "nM"}, {"measurement": "Ki", "setting": "CB2R [4]; abused SCRAs and N-methyl analogues, earlier study of the authors; read-out: CB2R Ki; cited from earlier work", "value": 20, "unit": "nM"}]}
{"smiles": "CCCCCn1nc(C(=O)N[C@H](C(N)=O)C(C)C)c2ccccc21", "note": "[compound 5, AB-PINACA]", "values": [{"measurement": "Ki", "setting": "CB1R; [5]", "value": 1.16, "unit": "nM"}, {"measurement": "Ki", "setting": "CB2R [4]; [6]", "value": 0.94, "unit": "nM"}]}
{"smiles": "CC(C)[C@H](NC(=O)c1nn(CC2CCCCC2)c2ccccc12)C(N)=O", "note": "[compound 6]", "values": [{"measurement": "Ki", "setting": "CB1R; [5]", "value": 0.9, "unit": "nM"}, {"measurement": "Ki", "setting": "CB2R [4]; [6]", "value": 1.1, "unit": "nM"}]}
{"smiles": "CC(C)[C@H](NC(=O)c1cn(CCCCCF)c2ccccc12)C(N)=O", "note": "[compound 7, 5F-AB-PICA]", "values": [{"measurement": "Ki", "setting": "CB1R; [5]", "value": 14.8, "unit": "nM"}, {"measurement": "Ki", "setting": "CB2R [4]; [6]", "value": 8.6, "unit": "nM"}]}
{"smiles": "CC(C)[C@H](NC(=O)c1cn(Cc2ccc(F)cc2)c2ccccc12)C(N)=O", "note": "[compound 8, AB-FUBICA]", "values": [{"measurement": "Ki", "setting": "CB1R; [5]", "value": 35.2, "unit": "nM"}, {"measurement": "Ki", "setting": "CB2R [4]; [6]", "value": 83.2, "unit": "nM"}]}
{"smiles": "CC(C)(C)[C@H](NC(=O)c1cn(CC2CCCCC2)c2ccccc12)C(N)=O", "note": "[compound 9, ADB-CHMICA]", "values": [{"measurement": "Ki", "setting": "CB1R; [5]", "value": 1.1, "unit": "nM"}, {"measurement": "Ki", "setting": "CB2R [4]; [6]", "value": 0.76, "unit": "nM"}]}
{"smiles": "CC(C)(C)[C@H](NC(=O)c1cn(Cc2ccc(F)cc2)c2ccccc12)C(N)=O", "note": "[compound 10, ADB-FUBICA]", "values": [{"measurement": "Ki", "setting": "CB1R; [5]", "value": 53.8, "unit": "nM"}, {"measurement": "Ki", "setting": "CB2R [4]; [6]", "value": 5.15, "unit": "nM"}]}
{"smiles": "COC(=O)CNC(=O)c1nn(Cc2ccc(F)cc2)c2ccccc12", "note": "[compound 11]", "values": [{"measurement": "Ki", "setting": "CB1R; [5]", "value": 181, "unit": "nM"}, {"measurement": "Ki", "setting": "CB2R [4]; [6]", "value": 125, "unit": "nM"}]}
{"smiles": "COC(=O)CN(C)C(=O)c1nn(Cc2ccc(F)cc2)c2ccccc12", "note": "[compound 12]", "values": [{"measurement": "CB1R % (1 μM)", "setting": "CB1R; [7]", "value": 33, "unit": "%"}, {"measurement": "Ki", "setting": "CB2R [4]; [6]", "value": 540, "unit": "nM"}]}
{"smiles": "NC(=O)CNC(=O)c1nn(CC2CCCCC2)c2ccccc12", "note": "[compound 13]", "values": [{"measurement": "Ki", "setting": "CB1R; [5]", "value": 268, "unit": "nM"}, {"measurement": "Ki", "setting": "CB2R [4]; [6]", "value": 171, "unit": "nM"}]}
{"smiles": "CN(CC(N)=O)C(=O)c1nn(CC2CCCCC2)c2ccccc12", "note": "[compound 14]", "values": [{"measurement": "CB1R % (1 μM)", "setting": "CB1R; [7]", "value": 21, "unit": "%"}, {"measurement": "Ki", "setting": "CB2R [4]; [6]", "value": 482, "unit": "nM"}]}
